Source: patent US10196364B2, “Pyrimidine carboxamides as sodium channel blockers” (Purdue Pharma L.P., priority 2013, dated 2019)
Like-named read-outs stand apart in the source and are kept apart here.

Assays:
Type in all cases: cell-based
human Nav1.7 [1] = target: T1, human Nav1.7 (Homo sapiens, UniProt Q15858); assay: FLIPR sodium dye assay (CoroNa Green AM Na+ dye, primary fluorescence assay) in recombinant Nav1.7/HEK293 cells; conditions: Table 6; CoroNa Green AM Na+ dye primary fluorescence assay; read-out: Nav1.7 Activity (μM) FLIPR assay IC50
hNav1.7 = hNav1.7 (Homo sapiens, UniProt Q15858); assay: Electrophysiology (EP) whole-cell patch clamp assay in hNav1.7 expressing HEK-293 cells; conditions: for Ki: affinity for inactivated channels, read-out: Nav1.7 Activity (μM) EP assay Ki; for Kd: resting block dissociation constant, read-out: Nav1.7 Activity (μM) EP assay Kr
Procedure: The hNav1.7 expressing HEK-293 cells were plated on 35 mm culture dishes pre-coated with poly-D-lysine in standard DMEM culture media (Mediatech, Inc., Herndon, Va.) and incubated in a 5% CO2 incubator at 37° C. Cultured cells were used approximately 12-48 h after plating.
On the day of experimentation, the 35 mm dish was placed on the stage of an inverted microscope equipped with a perfusion system that continuously perfuses the culture dish with fresh recording media. A gravity driven superfusion system was used to apply test solutions directly to the cell under evaluation. This system consists of an array of glass pipette glass connected to a motorized horizontal translator. The outlet of the shooter was positioned approximately 100 μm from the cell of interest.
Whole cell currents were recorded using the whole-cell patch clamp configuration using an Axopatch 200B amplifier (Axon Instruments, Foster City Calif.), 1322A A/D converter (Axon Instruments) and pClamp software (v. 8; Axon Instruments) and stored on a personal computer. Gigaseals were formed and the whole-cell configuration was established in voltage clamp mode, and membrane currents generated by hNav1.7 were recorded in gap-free mode. Borosilicate glass pipettes have resistance values between 1.5 and 2.0 MΩ when filled with pipette solution and series resistance (<5 MΩ) was compensated 75-80%. Signals were sampled at 50 kHz and low pass filtered at 3 kHz.
After establishing the whole-cell configuration in voltage clamp mode, two voltage protocols were run to establish: 1) the holding potential; and 2) the test potential for each cell.
To determine a membrane potential at which the majority of channels are in the resting state, a standard steady-state inactivation (SSIN) protocol was run using 100 ms prepulses×10 mV depolarizing steps. The holding potential for testing resting block (Vh1) was 20 mV more hyperpolarized than the first potential where inactivation is observed with the inactivation protocol.
From this holding potential a standard I-V protocol was run to determine the potential at which the maximal current (Imax) was elicited. This potential was the test potential (Vt).
The compound testing protocol was a series of 10 ms depolarizations from the Vh1 (determined from the SSIN) to the Vt (determined from the I-V protocol) repeated every 10-15 seconds. […] Washout of the compound was attempted by superfusing with control solution once steady-state block was observed. The fractional response was calculated as follows: FR=I(after drug)/I(control), where I is the peak current amplitude and was used for estimating resting block dissociation constant, Kr: Kr=[drug]*{FR/(1−FR)}, where [drug] is the concentration of a drug.
To assess the block of inactivated channels the holding potential was depolarized such that 20-50% of the current amplitude was reduced when pulsed to the same Vt as above. The magnitude of this depolarization depends upon the initial current amplitude and the rate of current loss due to slow inactivation. This was the second holding potential (Vh2). The current reduction was recorded to determine the fraction of available channels at this potential (h). h=I@Vh2/Imax.
At this membrane voltage a proportion of channels are in the inactivated state, and thus inhibition by a blocker includes interaction with both resting and inactivated channels.
To determine the potency of the test compound on inactivated channels, a series of currents were elicited by 10 ms voltage steps from Vh2 to Vt every 10-15 seconds. After establishing a stable baseline, the low concentration of the compound was applied. Multiple cumulative concentrations may have to be applied to identify a concentration that will block between 40-60% of the current. Washout was attempted to re-establish baseline. Fractional responses were measured with respect to a projected baseline to determine Kapp. Kapp=[drug]*{FR/(1−FR)}, where [drug] is the concentration of a drug. […]

human Nav1.7 [2] = target: T1, human Nav1.7; assay: FLIPR membrane potential dye assay (alternative fluorescence assay) in Nav1.7 expressing cells; conditions: Table 7

Sequence of hNav1.7 (Q15858 1-1977 isoform Q15858-3): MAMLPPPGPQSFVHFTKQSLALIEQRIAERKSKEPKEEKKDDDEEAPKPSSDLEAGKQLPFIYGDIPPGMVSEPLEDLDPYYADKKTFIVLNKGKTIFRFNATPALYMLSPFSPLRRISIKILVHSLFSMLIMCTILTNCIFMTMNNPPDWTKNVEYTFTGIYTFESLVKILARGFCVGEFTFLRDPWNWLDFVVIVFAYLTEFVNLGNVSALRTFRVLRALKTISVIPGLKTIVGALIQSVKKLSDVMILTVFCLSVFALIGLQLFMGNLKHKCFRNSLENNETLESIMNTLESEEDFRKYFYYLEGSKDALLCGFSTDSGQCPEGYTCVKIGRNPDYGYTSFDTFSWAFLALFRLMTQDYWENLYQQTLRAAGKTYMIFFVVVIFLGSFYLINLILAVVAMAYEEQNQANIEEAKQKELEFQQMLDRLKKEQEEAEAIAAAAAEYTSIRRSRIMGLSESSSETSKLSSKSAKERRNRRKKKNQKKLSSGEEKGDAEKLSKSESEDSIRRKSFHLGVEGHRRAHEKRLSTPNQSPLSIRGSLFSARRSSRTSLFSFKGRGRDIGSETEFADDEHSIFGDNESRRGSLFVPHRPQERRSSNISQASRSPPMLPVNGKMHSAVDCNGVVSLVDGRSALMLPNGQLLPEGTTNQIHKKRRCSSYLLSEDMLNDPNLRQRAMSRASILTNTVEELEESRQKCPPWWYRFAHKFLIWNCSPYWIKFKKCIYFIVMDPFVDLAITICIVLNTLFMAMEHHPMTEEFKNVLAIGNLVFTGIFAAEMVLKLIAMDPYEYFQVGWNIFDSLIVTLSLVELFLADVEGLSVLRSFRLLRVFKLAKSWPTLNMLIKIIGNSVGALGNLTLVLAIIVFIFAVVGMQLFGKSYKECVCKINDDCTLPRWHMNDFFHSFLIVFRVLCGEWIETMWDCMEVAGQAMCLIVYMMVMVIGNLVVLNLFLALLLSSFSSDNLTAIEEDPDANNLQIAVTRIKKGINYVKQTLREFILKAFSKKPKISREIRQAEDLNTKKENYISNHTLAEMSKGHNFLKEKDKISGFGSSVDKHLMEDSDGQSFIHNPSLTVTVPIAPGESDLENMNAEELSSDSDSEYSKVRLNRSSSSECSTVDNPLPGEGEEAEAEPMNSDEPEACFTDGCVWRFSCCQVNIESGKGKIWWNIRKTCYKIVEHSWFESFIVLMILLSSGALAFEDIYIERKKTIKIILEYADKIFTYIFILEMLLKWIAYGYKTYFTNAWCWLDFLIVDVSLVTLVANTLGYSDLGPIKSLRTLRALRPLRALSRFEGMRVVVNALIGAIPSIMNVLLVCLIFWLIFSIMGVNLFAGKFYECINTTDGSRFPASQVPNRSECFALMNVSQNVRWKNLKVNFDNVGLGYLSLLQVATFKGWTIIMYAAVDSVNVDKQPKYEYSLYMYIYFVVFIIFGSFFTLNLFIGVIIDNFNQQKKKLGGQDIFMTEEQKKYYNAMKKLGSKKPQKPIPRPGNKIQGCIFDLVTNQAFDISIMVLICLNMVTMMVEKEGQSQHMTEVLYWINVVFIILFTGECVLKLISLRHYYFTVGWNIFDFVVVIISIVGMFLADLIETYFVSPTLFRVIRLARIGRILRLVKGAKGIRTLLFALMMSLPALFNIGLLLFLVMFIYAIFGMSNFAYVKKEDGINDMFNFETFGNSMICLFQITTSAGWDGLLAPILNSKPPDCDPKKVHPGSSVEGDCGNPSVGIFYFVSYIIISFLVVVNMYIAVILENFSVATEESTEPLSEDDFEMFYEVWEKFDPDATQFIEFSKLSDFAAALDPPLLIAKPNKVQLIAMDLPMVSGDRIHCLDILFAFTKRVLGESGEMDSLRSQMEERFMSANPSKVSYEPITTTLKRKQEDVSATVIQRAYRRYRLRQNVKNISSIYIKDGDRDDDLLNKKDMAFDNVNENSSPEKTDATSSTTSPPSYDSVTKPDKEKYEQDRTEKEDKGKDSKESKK
T1 sequence (Q15858 1-1977 isoform Q15858-3): as above

| Compound | IC50 (human Nav1.7 [1]) [µM] | Ki (hNav1.7; Table 6) [µM] | IC50 (human Nav1.7 [2]) [µM] | also measured |
| --- | --- | --- | --- | --- |
| NC(=O)c1cc(N[C@H]2CCNC2=O)nc(N2[C@@H]3CC[C@H]2C[C@H](Oc2ccc(C(F)(F)F)cn2)C3)n1 [Cpd No. 183, 6-(((S)-2-oxopyrrolidin-3-yl)amino)-2-((1R,3R,5S)-3-((5-(trifluoromethyl)pyridin-2-yl)oxy)-8-azabicyclo[3.2.1]octan-8-yl)pyrimidine-4-carboxamide] | 1.27 | 0.49 | – | – |
| NC(=O)c1cc(N[C@H]2CCNC2=O)nc(-c2ccc(Cc3ccc(C(F)(F)F)cn3)cc2)n1 [Cpd No. 190, (S)-6-((2-oxopyrrolidin-3-yl)amino)-2-(4-((5-(trifluoro-methyl)pyridin-2-yl)methyl)-phenyl)pyrimidine-4-carboxamide] | 1.61 | 0.29 | – | – |
| CCN(CC)Cc1cc(C(F)(F)F)ccc1Oc1ccc(-c2nc(N[C@H](C)C(N)=O)cc(C(N)=O)n2)cc1 [Cpd No. 215, (R)-6-((1-amino-1-oxopropan-2-yl)amino)-2-(4-(2-((diethylamino)methyl)-4-(trifluoromethyl)phenoxy)phenyl)pyrimidine-4-carboxamide] | – | – | 7.35 | Ki (hNav1.7; Table 7): 1.39 µM |
| CCN(CC)Cc1cc(C(F)(F)F)ccc1Oc1ccc(-c2nc(O[C@H]3CCNC3=O)cc(C(N)=O)n2)cc1 [Cpd No. 216, (S)-2-(4-(2-((diethylamino)-methyl)-4-(trifluoromethyl)-phenoxy)phenyl)-6-((2-oxopyrrolidin-3-yl)oxy)-pyrimidine-4-carboxamide] | – | – | 1.21 | – |
| CC(=O)c1ccc(Oc2ccc(-c3nc(N[C@H]4CCNC4=O)cc(C(N)=O)n3)cc2)nc1 [Cpd No. 217, (S)-2-(4-((5-acetylpyridin-2-yl)oxy)phenyl)-6-((2-oxo-pyrrolidin-3-yl)amino)-pyrimidine-4-carboxamide] | – | – | > 20 | – |
| Cn1cc(-c2ccc(-c3nc(N[C@H]4CCNC4=O)cc(C(N)=O)n3)cc2)c2ccc(C(F)(F)F)cc21 [Cpd No. 218, (S)-2-(4-(1-methyl-6-(trifluoromethyl)-1H-indol-3-yl)phenyl)-6-((2-oxopyrrolidin-3-yl)amino)pyrimidine-4-carboxamide] | – | – | 4.03 | – |
| Cn1nccc1-c1cc(Oc2ccc(C(F)(F)F)cc2)ccc1-c1nc(N[C@H]2CCNC2=O)cc(C(N)=O)n1 [Cpd No. 219, (S)-2-(2-(1-methyl-1H-pyrazol-5-yl)-4-(4-(trifluoromethyl)-phenoxy)phenyl)-6-((2-oxopyrrolidin-3-yl)amino)-pyrimidine-4-carboxamide] | – | – | 0.94 | – |
| NC(=O)c1cc(N[C@H]2CCNC2=O)nc(-c2ccc(Oc3ccc(C(F)F)cn3)cc2)n1 [Cpd No. 220, (S)-2-(4-((5-(difluoromethyl)-pyridin-2-yl)oxy)phenyl)-6-((2-oxopyrrolidin-3-yl)amino)-pyrimidine-4-carboxamide] | – | – | 2.76 | – |
| NC(=O)c1cc(N[C@H]2CCNC2=O)nc(-c2ccc(N3Cc4cc(Cl)ccc4OCC3=O)cc2)n1 [Cpd No. 221, (S)-2-(4-(7-chloro-3-oxo-2,3-dihydrobenzo[f][1,4]oxazepin-4(5H)-yl)phenyl)-6-((2-oxopyrrolidin-3-yl)amino)-pyrimidine-4-carboxamide] | – | – | > 20 | – |
| C[C@H](Nc1cc(C(N)=O)nc(-c2ccc(N3Cc4cc(Cl)ccc4OCC3=O)cc2)n1)C(N)=O [Cpd No. 222, (S)-6-((1-amino-1-oxopropan-2-yl)amino)-2-(4-(7-chloro-3-oxo-2,3-dihydrobenzo-[f][1,4]oxazepin-4(5H)-yl)phenyl)pyrimidine-4-carboxamide] | – | – | > 20 | – |
| C[C@H](Nc1cc(C(N)=O)nc(-c2ccc(N3CCOc4cc(F)ccc43)cc2)n1)C(N)=O [Cpd No. 223, (S)-6-((1-amino-1-oxopropan-2-yl)amino)-2-(4-(7-fluoro-2,3-dihydro-4H-benzo[b][1,4]oxazin-4-yl)phenyl)pyrimidine-4-carboxamide] | – | – | 3.78 | – |
| C[C@H](Nc1cc(C(N)=O)nc(N2CC[C@H](Oc3ccc(C(F)(F)F)cc3)C2)n1)C(N)=O [Cpd No. 225, 6-(((S)-1-amino-1-oxopropan-2-yl)amino)-2-((S)-3-(4-(trifluoro-methyl)phenoxy)pyrrolidin-1-yl)pyrimidine-4-carboxamide] | – | – | 10 to 20 | – |
| C[C@H](Nc1cc(C(N)=O)nc(N2CC[C@@H](Oc3ccc(C(F)(F)F)cc3)C2)n1)C(N)=O [Cpd No. 226, 6-(((S)-1-amino-1-oxopropan-2-yl)amino)-2-((R)-3-(4-(trifluoromethyl)-phenoxy)pyrrolidin-1-yl)pyrimidine-4-carboxamide] | – | – | 3.23 | – |
| NC(=O)c1cc(O[C@H]2CCNC2=O)nc(-c2ccc(Oc3ccc(C(F)(F)F)cc3)cc2CN2CCCCC2)n1 [Cpd No. 231, (S)-6-((2-oxopyrrolidin-3-yl)oxy)-2-(2-(piperidin-1-ylmethyl)-4-(4-(trifluoromethyl)-phenoxy)phenyl)pyrimidine-4-carboxamide] | – | – | > 20 | – |
| NC(=O)c1cc(O[C@H]2CCNC2=O)nc(-c2ccc(Oc3ccc(C(F)(F)F)cc3)cc2CN2CCOCC2)n1 [Cpd No. 232, (S)-2-(2-(morpholinomethyl)-4-(4-(trifluoromethyl)-phenoxy)phenyl)-6-((2-oxopyrrolidin-3-yl)oxy)-pyrimidine-4-carboxamide] | – | – | 10 to 20 | – |
| Cn1cc(COc2ccc(-c3nc(N[C@H]4CCNC4=O)cc(C(N)=O)n3)cc2)cn1 [Cpd No. 233, (S)-2-(4-((1-methyl-1H-pyrazol-4-yl)methoxy)phenyl)-6-((2-oxopyrrolidin-3-yl)amino)-pyrimidine-4-carboxamide] | – | – | 10 to 20 | – |
| NC(=O)c1cc(N[C@H]2CCNC2=O)nc(-c2ccc(Oc3cc(Cl)ccc3F)cc2)n1 [compound 117, (S)-2-(4-(5-chloro-2-fluorophenoxy)phenyl)-6-((2-oxopyrrolidin-3-yl)amino)pyrimidine-4-carboxamide] | 0.2 | 0.027 | – | Kd (hNav1.7; Table 6): 0.83 µM |
| NC(=O)c1cc(N[C@H]2CCNC2=O)nc(-c2ccc(Oc3ccc(Cl)cn3)cc2)n1 [compound 133, (S)-2-(4-((5-chloropyridin-2-yl)oxy)phenyl)-6-((2-oxopyrrolidin-3-yl)amino)pyrimidine-4-carboxamide] | 0.39 | 0.57 | – | Kd (hNav1.7; Table 6): 7.17 µM |
| NC(=O)c1cc(N[C@H]2CCNC2=O)nc(-c2ccc(Oc3cccc(F)n3)cc2)n1 [compound 134, (S)-2-(4-((6-fluoropyridin-2-yl)oxy)phenyl)-6-((2-oxopyrrolidin-3-yl)amino) pyrimidine-4-carboxamide] | 2.42 | 0.82 | – | Kd (hNav1.7; Table 6): 22.1 µM |
| NC(=O)c1cc(N[C@H]2CCNC2=O)nc(N2C3CCC2CC(Oc2ccc(C(F)(F)F)cn2)C3)n1 (stereo partly drawn) [compound 140, 6-(((S)-2-oxopyrrolidin-3-yl)amino)-2-(3-((5-(trifluoromethyl)pyridin-2-yl)oxy)-8-azabicyclo[3.2.1]octan-8-yl)pyrimidine-4-carboxamide] | 0.38 | 2.55 | – | Kd (hNav1.7; Table 6): 46.2 µM |
| NC(=O)c1cc(N[C@H]2CCNC2=O)nc(-c2ccc(Oc3ccc(C4CC4)cn3)cc2)n1 [compound 142, (S)-2-(4-((5-cyclopropylpyridin-2-yl)oxy)phenyl)-6-((2-oxopyrrolidin-3-yl)amino)pyrimidine-4-carboxamide] | 0.064 | 0.3 | – | Kd (hNav1.7; Table 6): 26.8 µM |
| C[C@H](Oc1cc(C(N)=O)nc(-c2ccc(Oc3ccc(C(F)(F)F)cn3)cc2)n1)C(N)=O [compound 146, (S)-6-((1-amino-1-oxopropan-2-yl)oxy)-2-(4-((5-(trifluoromethyl)pyridin-2-yl)oxy)phenyl)pyrimidine-4-carboxamide] | 0.52 | 1.25 | – | Kd (hNav1.7; Table 6): 18.3 µM |
